Read-outs that look alike come from different tables or passages of the source.
Target: T1, hM5 (Homo sapiens, UniProt P08912)
T1 construct: expressed in transfected cells
T1 sequence (P08912 1-532): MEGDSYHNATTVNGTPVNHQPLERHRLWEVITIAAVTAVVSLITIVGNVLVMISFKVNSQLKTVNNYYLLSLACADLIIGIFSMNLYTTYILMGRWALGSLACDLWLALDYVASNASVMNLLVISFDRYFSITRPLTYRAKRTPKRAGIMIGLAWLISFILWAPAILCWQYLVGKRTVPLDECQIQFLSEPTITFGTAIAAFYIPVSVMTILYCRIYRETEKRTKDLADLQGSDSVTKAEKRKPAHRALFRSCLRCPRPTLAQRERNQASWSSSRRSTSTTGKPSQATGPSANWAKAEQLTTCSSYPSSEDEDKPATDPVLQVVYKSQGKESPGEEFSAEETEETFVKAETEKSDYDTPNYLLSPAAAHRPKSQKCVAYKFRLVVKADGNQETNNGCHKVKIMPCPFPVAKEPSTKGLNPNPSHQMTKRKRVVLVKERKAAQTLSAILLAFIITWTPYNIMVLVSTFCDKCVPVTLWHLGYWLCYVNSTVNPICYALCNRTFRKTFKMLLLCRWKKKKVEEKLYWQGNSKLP
Assay: Calcium mobilization concentration-response (IC50 vs EC80 acetylcholine), CHO hM5
Type: cell-based
Details: CELL LINE hM5, read-out: IC50
Method in brief: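 IC50 values derive from percent maximal acetylcholine response after an EC80 ACh addition, measured as kinetic calcium fluorescence (static ratio, max−min). Test compounds were added 140 s before agonist. Cells: stable hM5-CHO in HEPES-buffered HBSS with 2.5 mM probenecid, pH 7.4; ≥3 independent triplicate determinations.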

[1] = calcium mobilization, EC80 acetylcholine addition

Row | IC50 (vs EC80 acetylcholine) | IC50 [1] | Compound
1 | 40 nM | – | [2H]c1nc2cc(Cl)c(C3=CCN(S(=O)(=O)c4cnc(C)o4)CC3)cn2n1 [Compound 610, 5-((4-(7-chloro-[1,2,4]triazolo[1,5-a]pyridin-6-yl-2-d)-3,6-dihydropyridin-1(2H)-yl)sulfonyl)-2-methyloxazole]
2 | > 10000 nM | – | Cn1nc(C2CCN(S(=O)(=O)c3cnn(C)c3Cl)CC2)cc1-c1ccco1 [Compound 591, 1-((5-Chloro-1-methyl-1H-pyrazol-4-yl)sulfonyl)-4-(5-(furan-2-yl)-1-methyl-1H-pyrazol-3-yl)piperidine]
3 | – | 39 nM | Cc1cc2ncnn2cc1C1CCN(S(=O)(=O)c2cc3c(cc2C)OCC3C)CC1 (centres unmarked) [Compound 100, 6-(1-((3,6-dimethyl-2,3-dihydrobenzofuran-5-yl)sulfonyl)piperidin-4-yl)-7-methyl-[1,2,4]triazolo[1,5-a]pyridine]
4 | 26 nM | – | Cc1cc(S(=O)(=O)N2CCC(c3cn4ncnc4cc3CF)CC2)sn1 [Compound 605, 5-((4-(7-(Fluoromethyl)-[1,2,4]triazolo[1,5-a]pyridin-6-yl)piperidin-1-yl)sulfonyl)-3-methylisothiazole]
5 | – | > 10000 nM | O=S(=O)(c1ccc2c(c1)CCO2)N1CC[C@@H](c2cn(-c3ccc4scnc4c3)nn2)C1 [Compound 59, (R)-5-(4-(1-((2,3-Dihydrobenzofuran-5-yl)sulfonyl)pyrrolidin-3-yl)-1H-1,2,3-triazol-1-yl)benzo[d]thiazole]
6 | – | 1400 nM | Cc1cn2ncnc2cc1C1=CCN(S(=O)(=O)c2cnn(C)c2C)CC1 [Compound 212, 7-(1-((1,5-dimethyl-1H-pyrazol-4-yl)sulfonyl)-1,2,3,6-tetrahydropyridin-4-yl)-6-methyl-[1,2,4]triazolo[1,5-a]pyridine]
7 | – | 275 nM | Cc1cc2ncnn2cc1[C@@H]1CCN(S(=O)(=O)c2cn(C)nc2C)C[C@H]1F (racemic) [Compound 172, (rac)-6-(trans-1-((1,3-dimethyl-1H-pyrazol-4-yl)sulfonyl)-3-fluoropiperidin-4-yl)-7-methyl-[1,2,4]triazolo[1,5-a]pyridine]
8 | 3020 nM | – | Cn1ncc(S(=O)(=O)N2CCC(c3ccc4ncnn4c3)CC2)c1CC#N [Compound 433, 2-(4-((4-([1,2,4]triazolo[1,5-a]pyridin-6-yl)piperidin-1-yl)sulfonyl)-1-methyl-1-pyrazol-5-yl)acetonitrile]
9 | – | 237 nM | O=S(=O)(c1cnn2c1CCCC2)N1CCC(c2ccc3ncnn3c2)CC1 [Compound 287, 6-(1-((4,5,6,7-tetrahydropyrazolo[1,5-a]pyridin-3-yl)sulfonyl)piperidin-4-yl)-[1,2,4]triazolo[1,5-a]pyridine]
10 | – | 360 nM | Cc1c(C2CCN(S(=O)(=O)c3cnn(C)c3C(F)(F)F)CC2)cn2ncnc2c1F [Compound 347, 8-fluoro-7-methyl-6-(1-((1-methyl-5-(trifluoromethyl)-1H-pyrazol-4-yl)sulfonyl)piperidin-4-yl)-[1,2,4]triazolo[1,5-a]pyridine]
11 | – | 14 nM | Cc1c(C2CCN(S(=O)(=O)c3cnn4c3CCC4)CC2)cn2ncnc2c1F [Compound 268, 6-(1-((5,6-dihydro-4H-pyrrolo[1,2-b]pyrazol-3-yl)sulfonyl)piperidin-4-yl)-8-fluoro-7-methyl-[1,2,4]triazolo[1,5-a]pyridine]
12 | – | > 10000 nM | O=S(=O)(c1ccc2c(c1)CCO2)N1CC=C(c2cc3c(cc2Cl)OCO3)CC1 [Compound 352, 4-(6-chlorobenzo[d][1,3]dioxol-5-yl)-1-((2,3-dihydrobenzofuran-5-yl)sulfonyl)-1,2,3,6-tetrahydropyridine]
13 | – | > 10000 nM | Cc1cc2ncnn2cc1C1=CCN(S(=O)(=O)c2ccc3c(c2)CC(C)O3)CC1 (centres unmarked) [Compound 49, 7-methyl-6-(1-((2-methyl-2,3-dihydrobenzofuran-5-yl)sulfonyl)-1,2,3,6-tetrahydropyridin-4-yl)-[1,2,4]triazolo[1,5-a]pyridine]
14 | 63 nM | – | Cc1cnc2ccccc2c1C1=CCN(S(=O)(=O)c2cnn3c2OCCC3)CC1 [Compound 428, 3-((4-(3-methylquinolin-4-yl)-3,6-dihydropyridin-1(2H)-yl)sulfonyl)-6,7-dihydro-5H-pyrazolo[5,1-b][1,3]oxazine]
15 | – | 62 nM | Cc1cc2ncnn2cc1C1CCN(S(=O)(=O)c2cnn3c2NCCC3)CC1 [Compound 261, 7-methyl-6-(1-((4,5,6,7-tetrahydropyrazolo[1,5-a]pyrimidin-3-yl)sulfonyl)piperidin-4-yl)-[1,2,4]triazolo[1,5-a]pyridine]
16 | 32 nM | – | Cc1cnc2ccccc2c1C1=CCN(S(=O)(=O)c2cnn(C)c2Cl)CC1 [Compound 427, 4-(1-((5-chloro-1-methyl-1H-pyrazol-4-yl)sulfonyl)-1,2,3,6-tetrahydropyridin-4-yl)-3-methylquinoline]

Row | IC50 (vs EC80 acetylcholine) | IC50 [1] | Compound
17 | – | 15 nM | O=S(=O)(c1cnc2ccccn12)N1CCC(c2cn3ncnc3cc2Cl)CC1 [Compound 342, 7-chloro-6-(1-(imidazo[1,2-a]pyridin-3-ylsulfonyl)piperidin-4-yl)-[1,2,4]triazolo[1,5-a]pyridine]
18 | – | 877 nM | Cc1cc2nccn2nc1C1CCN(S(=O)(=O)c2cnn(C(F)F)c2C)CC1 [Compound 312, 6-(1-((1-(difluoromethyl)-5-methyl-1H-pyrazol-4-yl)sulfonyl)piperidin-4-yl)-7-methylimidazo[1,2-b]pyridazine]
19 | – | 67 nM | O=S(=O)(c1cnc2n1CCCC2)N1CCC(c2cn3ncnc3cc2C(F)(F)F)CC1 [Compound 339, 6-(1-((5,6,7.8-tetrahydroimidazo[1,2-a]pyridin-3-yl)sulfonyl)piperidin-4-yl)-7-(trifluoromethyl)-[1,2,4]triazolo[1,5-a]pyridine]
20 | 244 nM | – | Cc1cc2ncnn2cc1C1CCN(S(=O)(=O)c2cnn(C)c2OC(C)C)CC1 [Compound 603, 6-(1-((5-isopropoxy-1-methyl-1H-pyrazol-4-yl)sulfonyl)piperidin-4-yl)-7-methyl-[1,2,4]triazolo[1,5-a]pyridine]
21 | – | > 10000 nM | O=S(=O)(c1ccc2c(c1)CCO2)N1CCC(c2cn3ccnc3cn2)CC1 [Compound 27, 6-(1-((2,3-dihydrobenzofuran-5-yl)sulfonyl)piperidin-4-yl)imidazo[1,2-a]pyrazine]
22 | – | 1390 nM | Cc1ncc(S(=O)(=O)N2CCC(c3ccc4c(c3)OCO4)CC2)n1C [Compound 358, 4-(benzo[d][1,3]dioxol-5-yl)-1-((1,2-dimethyl-1H-imidazol-5-yl)sulfonyl)piperidine]
23 | – | > 10000 nM | Cc1cc2ncnn2cc1C1CCN(S(=O)(=O)c2ccccc2-c2ccno2)CC1 [Compound 96, 5-(2-((4-(7-methyl-[1,2,4]triazolo[1,5-a]pyridin-6-yl)piperidin-1-yl)sulfonyl)phenyl)isoxazole]
24 | – | > 10000 nM | COc1cc2ncnn2cc1C1CCN(S(=O)(=O)c2cn(C)nc2C)CC1 [Compound 83, 6-(1-((1,3-dimethyl-1H-pyrazol-4-yl)sulfonyl)piperidin-4-yl)-7-methoxy-[1,2,4]triazolo[1,5-a]pyridine]
25 | – | 327 nM | O=S(=O)(c1c(Cl)nc2sccn12)N1CCC(c2cn3ncnc3cc2F)CC1 [Compound 328, 6-chloro-5-((4-(7-fluoro-[1,2,4]triazolo[1,5-a]pyridin-6-yl)piperidin-1-yl)sulfonyl)imidazo[2,1-b]thiazole]
26 | – | > 10000 nM | Cc1cc2ncnn2cc1C1CCN(S(=O)(=O)c2cc3c(cc2F)OCC3)C1 (centres unmarked) [Compound 127, 6-(1-((6-fluoro-2,3-dihydrobenzofuran-5-yl)sulfonyl)pyrrolidin-3-yl)-7-methyl-[1,2,4]triazolo[1,5-a]pyridine]
27 | 20 nM | – | Cc1cc2ncnn2cc1C1CCN(S(=O)(=O)c2cnn3ccccc23)CC1 [Compound 508, 7-methyl-6-(1-(pyrazolo[1,5-a]pyridin-3-ylsulfonyl)piperidin-4-yl)-[1,2,4]triazolo[1,5-a]pyridine]
28 | – | > 10000 nM | CCn1cc(S(=O)(=O)N2CCC(c3cn4ncnc4cc3C)CC2)c(C2CC2)n1 [Compound 134, 6-(1-((3-cyclopropyl-1-ethyl-1H-pyrazol-4-yl)sulfonyl)piperidin-4-yl)-7-methyl-[1,2,4]triazolo[1,5-a]pyridine]
29 | – | 2200 nM | O=S(=O)(c1ccc2c(c1)CCO2)N1CCC(c2cc3cc[nH]c3nn2)CC1 [Compound 21, 3-(1-((2,3-dihydrobenzofuran-5-yl)sulfonyl)piperidin-4-yl)-7H-pyrrolo[2,3-c]pyridazine]
30 | – | > 10000 nM | Cc1cc2ncnn2nc1C1CCN(S(=O)(=O)c2c(C)n[nH]c2C)CC1 [Compound 180, 6-(1-((3,5-dimethyl-1H-pyrazol-4-yl)sulfonyl)piperidin-4-yl)-7-methyl-[1,2,4]triazolo[1,5-b]pyridazine]
31 | – | 4620 nM | Cc1ccncc1C1CCN(S(=O)(=O)c2cnn3c2OCCC3)CC1 [Compound 386, 3-((4-(4-methylpyridin-3-yl)piperidin-1-yl)sulfonyl)-6,7-dihydro-5H7-pyrazolo[5,1-b][1,3]oxazine]
32 | 65 nM | – | CCc1cc2ncnn2cc1C1CCN(S(=O)(=O)c2cc(C)ns2)CC1 [Compound 493, 5-((4-(7-ethyl-[1,2,4]triazolo[1,5-a]pyridin-6-yl)piperidin-1-yl)sulfonyl)-3-methylisothiazole]

From US20230183237A1, “COMPETITIVE AND NONCOMPETITIVE INHIBITORS OF THE MUSCARINIC ACETYLCHOLINE RECEPTOR M5” (Vanderbilt University, priority 2020, published 2023)
